Measurements taken from ChEMBL document CHEMBL2046367, “Novel BACE1 inhibitors possessing a 5-nitroisophthalic scaffold at the P2 position” (Bioorg Med Chem Lett, 2012).

Legend:
Beta-secretase 1 [1] = target: T1, Beta-secretase 1 (Homo sapiens, UniProt P56817); assay: Inhibition of human recombinant BACE1 at 2 uM by FRET assay
Beta-secretase 1 [2] = target: T1, Beta-secretase 1; assay: Inhibition of human recombinant BACE1 at 0.2 uM by FRET assay
Beta-secretase 1 [3] = target: T1, Beta-secretase 1; assay: Inhibition of human recombinant BACE1 by FRET assay

T1 sequence (P56817 whole entry): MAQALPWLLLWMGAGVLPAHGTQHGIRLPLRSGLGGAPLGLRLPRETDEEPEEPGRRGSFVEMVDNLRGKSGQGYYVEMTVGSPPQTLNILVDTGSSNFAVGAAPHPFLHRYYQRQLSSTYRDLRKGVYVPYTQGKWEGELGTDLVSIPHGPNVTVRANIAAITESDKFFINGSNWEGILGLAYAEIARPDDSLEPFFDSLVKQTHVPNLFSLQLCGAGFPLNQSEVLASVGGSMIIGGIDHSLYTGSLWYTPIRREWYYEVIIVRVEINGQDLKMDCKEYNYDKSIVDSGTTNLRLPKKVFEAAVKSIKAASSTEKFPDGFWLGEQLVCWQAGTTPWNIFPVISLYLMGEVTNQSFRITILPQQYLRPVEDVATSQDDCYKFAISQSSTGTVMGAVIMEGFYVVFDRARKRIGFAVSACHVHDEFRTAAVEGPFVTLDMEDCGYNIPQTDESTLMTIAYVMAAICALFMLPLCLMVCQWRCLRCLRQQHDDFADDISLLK

| inhibition (Beta-secretase 1 [1]) [%] | inhibition (Beta-secretase 1 [2]) [%] | IC50 (Beta-secretase 1 [3]) [nM] | SMILES |
| --- | --- | --- | --- |
| 60 |  |  | O=C(N[C@@H](Cc1ccccc1)[C@H](O)C(=O)Nc1cccc(-c2nn[nH]n2)c1)c1cc(C(=O)N2CCCCCC2)cc([N+](=O)[O-])c1 |
| 92 | 54 |  | CC[C@H]1COCN1C(=O)c1cc(C(=O)N[C@@H](Cc2ccccc2)[C@H](O)C(=O)Nc2cccc(-c3nn[nH]n3)c2)cc([N+](=O)[O-])c1 |
| 49 |  |  | O=C(N[C@@H](Cc1ccccc1)[C@H](O)C(=O)Nc1cccc(-c2nn[nH]n2)c1)c1cc(C(=O)N2CCCCC2)cc([N+](=O)[O-])c1 |
| 93 | 57 |  | CCC[C@H]1COCN1C(=O)c1cc(C(=O)N[C@@H](Cc2ccccc2)[C@H](O)C(=O)Nc2cccc(-c3nn[nH]n3)c2)cc([N+](=O)[O-])c1 |
| 80 | 38 |  | O=C(N[C@@H](Cc1ccccc1)[C@H](O)C(=O)Nc1cccc(-c2nn[nH]n2)c1)c1cc(C(=O)N2CCCCCCC2)cc([N+](=O)[O-])c1 |
| 63 |  |  | CC(C)(C)c1cc(C(=O)N[C@@H](Cc2ccccc2)[C@H](O)C(=O)Nc2cccc(-c3nn[nH]n3)c2)cc(C(=O)N2COC[C@@H]2c2ccccc2)c1 |
| 98 | 88 | 19 | O=C(N[C@@H](Cc1ccccc1)[C@H](O)C(=O)Nc1cccc(-c2nn[nH]n2)c1)c1cc(C(=O)N2COC[C@@H]2c2ccccc2)cc([N+](=O)[O-])c1 |
| 28 |  |  | O=C(N[C@@H](Cc1ccccc1)[C@H](O)C(=O)Nc1cccc(-c2nn[nH]n2)c1)c1cc(C(=O)N2CCCCCCCC2)cc([N+](=O)[O-])c1 |
| 49 |  |  | Nc1cc(C(=O)N[C@@H](Cc2ccccc2)[C@H](O)C(=O)Nc2cccc(-c3nn[nH]n3)c2)cc(C(=O)N2COC[C@@H]2c2ccccc2)c1 |
| 50 |  |  | O=C(N[C@@H](Cc1ccccc1)[C@H](O)C(=O)Nc1cccc(-c2nn[nH]n2)c1)c1cc(C(=O)N2COC[C@@H]2CC2CCCCC2)cc([N+](=O)[O-])c1 |
| 81 | 41 |  | O=C(N[C@@H](Cc1ccccc1)[C@H](O)C(=O)Nc1cccc(-c2nn[nH]n2)c1)c1cc(C(=O)N2COC[C@@H]2c2cc(F)c(F)c(F)c2)cc([N+](=O)[O-])c1 |
| 0 |  |  | O=C(N[C@@H](Cc1ccccc1)[C@H](O)C(=O)Nc1cccc(-c2nn[nH]n2)c1)c1cc(C(=O)N2CCOCC2)cc([N+](=O)[O-])c1 |
| 98 | 84 | 25 | O=C(N[C@@H](Cc1ccccc1)[C@H](O)C(=O)Nc1cccc(-c2nn[nH]n2)c1)c1cc(Br)cc(C(=O)N2COC[C@@H]2c2ccccc2)c1 |
| 33 |  |  | C[C@H]1COCN1C(=O)c1cc(C(=O)N[C@@H](Cc2ccccc2)[C@H](O)C(=O)Nc2cccc(-c3nn[nH]n3)c2)cc([N+](=O)[O-])c1 |
| 91 | 60 | 122 | O=C(O)c1cc(C(=O)N[C@@H](Cc2ccccc2)[C@H](O)C(=O)Nc2cccc(-c3nn[nH]n3)c2)cc(C(=O)N2COC[C@@H]2c2ccccc2)c1 |
| 79 |  |  | CCCN(CCC)C(=O)c1cc(C(=O)N[C@@H](Cc2ccccc2)[C@H](O)C(=O)Nc2cccc(-c3nn[nH]n3)c2)cc([N+](=O)[O-])c1 |
| 83 | 44 |  | C[C@@H](NC(=O)c1cc(C(=O)N[C@@H](Cc2ccccc2)[C@H](O)C(=O)Nc2cccc(-c3nn[nH]n3)c2)cc([N+](=O)[O-])c1)c1ccccc1 |
| 87 | 50 |  | C[C@@H](NC(=O)c1cc(C(=O)N[C@@H](Cc2ccccc2)[C@H](O)C(=O)Nc2cccc(-c3nn[nH]n3)c2)cc([N+](=O)[O-])c1)c1ccc(F)cc1 |

| inhibition (Beta-secretase 1 [1]) [%] | inhibition (Beta-secretase 1 [2]) [%] | IC50 (Beta-secretase 1 [3]) [nM] | SMILES |
| --- | --- | --- | --- |
|  |  | 67 | Cc1cc(C(=O)N[C@@H](Cc2ccccc2)[C@H](O)C(=O)Nc2cccc(-c3nnn[nH]3)c2)cc(C(=O)N2COC[C@@H]2c2ccccc2)c1 |
| 80 |  |  | O=C(N[C@@H](Cc1ccccc1)[C@H](O)C(=O)Nc1cccc(-c2nn[nH]n2)c1)c1cc(C(=O)N2COC[C@@H]2Cc2ccc(O)cc2)cc([N+](=O)[O-])c1 |
| 89 | 57 |  | COC[C@H]1CCCN1C(=O)c1cc(C(=O)N[C@@H](Cc2ccccc2)[C@H](O)C(=O)Nc2cccc(-c3nn[nH]n3)c2)cc([N+](=O)[O-])c1 |
| 24 |  |  | O=C(N[C@@H](Cc1ccccc1)[C@H](O)C(=O)Nc1cccc(-c2nn[nH]n2)c1)c1cc(C(=O)N2CCCC2)cc([N+](=O)[O-])c1 |
| 92 | 59 |  | CCCC[C@H]1COCN1C(=O)c1cc(C(=O)N[C@@H](Cc2ccccc2)[C@H](O)C(=O)Nc2cccc(-c3nn[nH]n3)c2)cc([N+](=O)[O-])c1 |
| 71 |  |  | CC(C)(C)[C@H]1COCN1C(=O)c1cc(C(=O)N[C@@H](Cc2ccccc2)[C@H](O)C(=O)Nc2cccc(-c3nn[nH]n3)c2)cc([N+](=O)[O-])c1 |
| 94 | 62 |  | CCC(C)[C@H]1COCN1C(=O)c1cc(C(=O)N[C@@H](Cc2ccccc2)[C@H](O)C(=O)Nc2cccc(-c3nn[nH]n3)c2)cc([N+](=O)[O-])c1 (stereo partly specified) |
| 98 | 78 |  | O=C(N[C@@H](Cc1ccccc1)[C@H](O)C(=O)Nc1cccc(-c2nn[nH]n2)c1)c1cc(I)cc(C(=O)N2COC[C@@H]2c2ccccc2)c1 |
| 85 | 42 |  | CC(C)C[C@H]1COCN1C(=O)c1cc(C(=O)N[C@@H](Cc2ccccc2)[C@H](O)C(=O)Nc2cccc(-c3nn[nH]n3)c2)cc([N+](=O)[O-])c1 |
| 57 |  |  | O=C(N[C@@H](Cc1ccccc1)[C@H](O)C(=O)Nc1cccc(-c2nn[nH]n2)c1)c1cc(C(=O)N2COC[C@@H]2Cc2c[nH]c3ccccc23)cc([N+](=O)[O-])c1 |
| 99 | 91 | 13 | O=C(N[C@@H](Cc1ccccc1)[C@H](O)C(=O)Nc1cccc(-c2nn[nH]n2)c1)c1cc(C(=O)N2COC[C@@H]2c2ccc(F)cc2)cc([N+](=O)[O-])c1 |
| 86 | 45 |  | CSCC[C@H]1COCN1C(=O)c1cc(C(=O)N[C@@H](Cc2ccccc2)[C@H](O)C(=O)Nc2cccc(-c3nn[nH]n3)c2)cc([N+](=O)[O-])c1 |
|  |  | 34 | O=C(N[C@@H](Cc1ccccc1)[C@H](O)C(=O)Nc1cccc(-c2nnn[nH]2)c1)c1cc(I)cc(C(=O)N2COC[C@@H]2c2ccccc2)c1 |
| 95 | 65 |  | Cc1cc(C(=O)N[C@@H](Cc2ccccc2)[C@H](O)C(=O)Nc2cccc(-c3nn[nH]n3)c2)cc(C(=O)N2COC[C@@H]2c2ccccc2)c1 |
| 89 | 45 |  | O=C(N[C@@H](Cc1ccccc1)[C@H](O)C(=O)Nc1cccc(-c2nn[nH]n2)c1)c1cc(C(=O)N2COC[C@@H]2Cc2ccccc2)cc([N+](=O)[O-])c1 |
| 79 |  |  | CC(=O)Oc1cc(C(=O)N[C@@H](Cc2ccccc2)[C@H](O)C(=O)Nc2cccc(-c3nn[nH]n3)c2)cc(C(=O)N2COC[C@@H]2c2ccccc2)c1 |
| 85 | 46 | 192 | O=C(N[C@@H](Cc1ccccc1)[C@H](O)C(=O)Nc1cccc(-c2nn[nH]n2)c1)c1cccc(C(=O)N2COC[C@@H]2c2ccccc2)c1 |
| 88 | 44 |  | CC(C)[C@H]1COCN1C(=O)c1cc(C(=O)N[C@@H](Cc2ccccc2)[C@H](O)C(=O)Nc2cccc(-c3nn[nH]n3)c2)cc([N+](=O)[O-])c1 |
